Experimental data taken from the NIST ThermoML archive (doi:10.1016/j.jct.2014.03.009).
± gives the expanded uncertainty stated by the source.

Details: 298 K; 101.33 kPa; Crystal; X-ray diffraction

mass density: 1713 ± 8 kg/m3
Structure (SMILES): O.O.O.O.O=C([O-])[C@H](O)[C@@H](O)[C@H](O)[C@H](O)CO.O=C([O-])[C@H](O)[C@@H](O)[C@H](O)[C@H](O)CO.[Mn+2] [manganese(II) D-gluconate tetrahydrate]
